This assay deals with Sarcoma-180. Put plainly: Pharmacological Test I: antitumor effect on subcutaneously transplanted Sarcoma-180 solid tumor in mice. The settings on record: Mus musculus, 240 h; ICR mice, Sarcoma-180 2 X 10⁷ cells subcutaneously; oral, once a day for 7 consecutive days, suspended in 5 % gum arabic; tumor weight on the 10th day; from dose-response curve; read-out: ED₅₀ (50 % tumor inhibition dose in which T/C is 0.5). In kind it is in vivo. The protocol:
Isophthaloyl chloride (1.50 g) and 6.0 ml of triethylamine were added to a solution of 1.00 g of 5-fluoro-1-(2-tetrahydrofuranyl)uracil in 50 ml of dioxane. The mixture was refluxed for 1.5 hours. The resulting precipitate was removed by filtration and the filtrate was concentrated. To the concentrate was added 50 ml of methylene chloride and thereto added was 10 ml of a solution of 1.50 g of 2,6-bis(trimethylsilyloxy)pyridine in methylene chloride. The mixture was left to stand at room temperature for 3 hours. The solvent was distilled off and the residue was subjected to silica gel column chromatography using as an eluent 2 % methanol-chloroform, giving 0.30 g of the title compound in a yield of 14 %. ¹H-NMR(CDCl₃)δ: 8.66-8.19 (3H, m, [drawing 76] 7.83-7.62 (2H, m, [drawing 77] and C₄-H of the pyridine ring) 7.52 (1H, d, J = 6Hz, C₆-H) 6.77 and 6.68 (each 1H, d, J = 8Hz, C₃·₅-H of the pyridine ring) 5.99-5.92 (1H, m, C1'-H) 4.30-3.88 (2H, m, C4'-H) 2.44-1.89 (4H, m, C2'·3'-H) Pharmacological Test I • (a) Sarcoma-180 subcultured in an ascites of ICR mice was diluted with a physiological saline solution and subcutaneously transplanted into the backs of ICR mice in an amount of 2 X 10⁷ cells each. Twenty-four hours after the transplantation, a test compound suspended in a 5 % solution of gum arabic was orally administered to each of mice once a day for 7 consecutive days.
The solid tumor was extirpated from under the dorsal skin of mice on the 10th day after the transplantation to measure the weight of the tumor. There was determined the ratio (T/C) of the weight or tumor (T) cut out from the group of mice treated with the test compound to the weight of tumor (C) from the group of mice not treated therewith. The 50 % tumor inhibition dose (ED₅₀ value) in which T/C is 0.5 was determined from the dose-response curve of dosage and the ratio (T/C).
Table 1 below lists the results together with the value obtained by using as a control an anti-cancer preparation containing 5-fluoro-1-(2-tetrahydrofuranyl)uracil and uracil in a ratio by weight of 1 to 4.
As to `O=C(Oc1cc[nH]c(=O)c1)c1cccc(C(=O)n2c(=O)c(F)cn(C3CCCO3)c2=O)c1` (centres unmarked) [Example 1, 3-[3-(1,2-dihydro-2-oxo-4-pyridyloxycarbonyl)benzoyl]-5-fluoro-1-(2-tetrahydrofuranyl)uracil], the ED50 was 10 mg/kg. Turning to `O=C(Oc1cc(OC(=O)c2cccc(C(=O)n3c(=O)c(F)cn(C4CCCO4)c3=O)c2)c(Cl)cn1)c1ccccc1` (centres unmarked) [Example 3, 3-[3-(2-benzoyloxy-5-chloro-4-pyridyloxycarbonyl)benzoyl]-5-fluoro-1-(2-tetrahydrofuranyl)uracil], the ED50 came out at 25 mg/kg. The result for `O=C(Oc1cc(OC(=O)c2ccccc2)c(Cl)cn1)c1cccc(C(=O)n2c(=O)c(F)cn(C3CCCO3)c2=O)c1` (centres unmarked) [Example 4, 3-[3-(4-benzoyloxy-5-chloro-2-pyridyloxycarbonyl)benzoyl]-5-fluoro-1-(2-tetrahydrofuranyl)uracil] reads 18 mg/kg; that for `O=C(Oc1cc(=O)n(C2CCCO2)cc1Cl)c1cccc(C(=O)n2c(=O)c(F)cn(C3CCCO3)c2=O)c1` (centres unmarked) [Example 10, 3-[3-[5-chloro-1,2-dihydro-2-oxo-1-(2-tetrahydrofuranyl)-4-pyridyloxycarbonyl]benzoyl]-5-fluoro-1-(2-tetrahydrofuranyl)uracil], 28 mg/kg; that for `N#Cc1ccc(OC(=O)c2ccco2)nc1OC(=O)c1cccc(C(=O)n2c(=O)c(F)cn(C3CCCO3)c2=O)c1` (centres unmarked) [Example 15, 3-[3-[3-cyano-6-(2-furoyloxy)-2-pyridyloxycarbonyl]benzoyl]-5-fluoro-1-(2-tetrahydrofuranyl)uracil], 18 mg/kg.

These data come from EP0436902B1, “5-Fluorouracil derivatives” (OTSUKA PHARMACEUTICAL CO., LTD., priority 1984, dated 1986).
